Assay results published in the NIST ThermoML archive (doi:10.1016/j.jct.2013.09.028).
± gives the expanded uncertainty stated by the source.

How the values were obtained:
[1] = 101.33 kPa, Liquid; for viscosity: Capillary tube (Ostwald / Ubbelohde) method; for speed of sound: Sing-around technique in a fixed-path interferometer; for mass density: Vibrating tube method
[2] = refractive index (Na D-line) (dimensionless); details: 101.33 kPa, Liquid, Standard Abbe refractometry

Compound	viscosity ([1]; 298.15 K)	speed of sound ([1]; 298.15 K)	mass density ([1]; 298.15 K)	viscosity ([1]; 303.15 K)	speed of sound ([1]; 303.15 K)	mass density ([1]; 303.15 K)	viscosity ([1]; 308.15 K)	speed of sound ([1]; 308.15 K)	mass density ([1]; 308.15 K)	viscosity ([1]; 313.15 K)	speed of sound ([1]; 313.15 K)	mass density ([1]; 313.15 K)	viscosity ([1]; 318.15 K)	speed of sound ([1]; 318.15 K)	mass density ([1]; 318.15 K)	viscosity ([1]; 323.15 K)	speed of sound ([1]; 323.15 K)	mass density ([1]; 323.15 K)	viscosity ([1]; 328.15 K)	speed of sound ([1]; 328.15 K)	other results
CCCCCc1c(C)cc(C)c[n+]1CCCC.O=S(=O)([N-]S(=O)(=O)C(F)(F)F)C(F)(F)F	253 ± 9 mPa·s	1293 ± 2 m/s	1288.23 ± 0.47 kg/m3	186 ± 6 mPa·s	1279 ± 2 m/s	1283.93 ± 0.47 kg/m3	138 ± 4 mPa·s	1266 ± 2 m/s	1279.63 ± 0.47 kg/m3	105 ± 3 mPa·s	1253 ± 2 m/s	1275.33 ± 0.46 kg/m3	80.8 ± 2 mPa·s	1240 ± 2 m/s	1271.04 ± 0.46 kg/m3	63.7 ± 1.5 mPa·s	1228 ± 2 m/s	1266.77 ± 0.46 kg/m3	51 ± 1.1 mPa·s	1215 ± 2 m/s	mass density ([1]; 328.15 K): 1262.51 ± 0.45 kg/m3; viscosity ([1]; 333.15 K): 41.5 ± 0.9 mPa·s; speed of sound ([1]; 333.15 K): 1203 ± 2 m/s; mass density ([1]; 333.15 K): 1258.26 ± 0.45 kg/m3; viscosity ([1]; 338.15 K): 34.2 ± 0.8 mPa·s; speed of sound ([1]; 338.15 K): 1191 ± 2 m/s; mass density ([1]; 338.15 K): 1254.01 ± 0.44 kg/m3; viscosity ([1]; 343.15 K): 28.6 ± 0.6 mPa·s; speed of sound ([1]; 343.15 K): 1179 ± 2 m/s; mass density ([1]; 343.15 K): 1249.77 ± 0.44 kg/m3; refractive index ([2]; 298.15 K): 1.4604 ± 0.00037; refractive index ([2]; 303.15 K): 1.45878 ± 0.00037; refractive index ([2]; 308.15 K): 1.45714 ± 0.00037; refractive index ([2]; 313.15 K): 1.45549 ± 0.00037; refractive index ([2]; 318.15 K): 1.45386 ± 0.00037; refractive index ([2]; 323.15 K): 1.45226 ± 0.00037; refractive index ([2]; 328.15 K): 1.45065 ± 0.00037; refractive index ([2]; 333.15 K): 1.44902 ± 0.00037; refractive index ([2]; 338.15 K): 1.44744 ± 0.00037; refractive index ([2]; 343.15 K): 1.44588 ± 0.00037
CCCCCc1c(C)cc(C)c[n+]1CC.O=S(=O)([N-]S(=O)(=O)C(F)(F)F)C(F)(F)F	260 ± 9 mPa·s	1309 ± 2 m/s	1323.9 ± 0.51 kg/m3	187 ± 6 mPa·s	1296 ± 2 m/s	1319.56 ± 0.5 kg/m3	138 ± 4 mPa·s	1283 ± 2 m/s	1315.21 ± 0.5 kg/m3	104 ± 3 mPa·s	1270 ± 2 m/s	1310.86 ± 0.49 kg/m3	79.9 ± 1.9 mPa·s	1258 ± 2 m/s	1306.53 ± 0.49 kg/m3	62.8 ± 1.4 mPa·s	1245 ± 2 m/s	1302.2 ± 0.49 kg/m3	50.1 ± 1.1 mPa·s	1233 ± 2 m/s	mass density ([1]; 328.15 K): 1297.9 ± 0.48 kg/m3; viscosity ([1]; 333.15 K): 40.7 ± 0.9 mPa·s; speed of sound ([1]; 333.15 K): 1221 ± 2 m/s; mass density ([1]; 333.15 K): 1293.6 ± 0.48 kg/m3; viscosity ([1]; 338.15 K): 33.5 ± 0.7 mPa·s; speed of sound ([1]; 338.15 K): 1209 ± 2 m/s; mass density ([1]; 338.15 K): 1289.3 ± 0.48 kg/m3; viscosity ([1]; 343.15 K): 28 ± 0.6 mPa·s; speed of sound ([1]; 343.15 K): 1198 ± 2 m/s; mass density ([1]; 343.15 K): 1285.03 ± 0.47 kg/m3; refractive index ([2]; 298.15 K): 1.46108 ± 0.00037; refractive index ([2]; 303.15 K): 1.45947 ± 0.00037; refractive index ([2]; 308.15 K): 1.45787 ± 0.00037; refractive index ([2]; 313.15 K): 1.45627 ± 0.00037; refractive index ([2]; 318.15 K): 1.45463 ± 0.00037; refractive index ([2]; 323.15 K): 1.45304 ± 0.00037; refractive index ([2]; 328.15 K): 1.45139 ± 0.00037; refractive index ([2]; 333.15 K): 1.44979 ± 0.00037; refractive index ([2]; 338.15 K): 1.44822 ± 0.00037; refractive index ([2]; 343.15 K): 1.44667 ± 0.00037
CCCCCC[n+]1cc(C)cc(C)c1CCCCC.O=S(=O)([N-]S(=O)(=O)C(F)(F)F)C(F)(F)F	278 ± 10 mPa·s	1291 ± 2 m/s	1253.47 ± 0.44 kg/m3	204 ± 7 mPa·s	1277 ± 2 m/s	1249.29 ± 0.44 kg/m3	151 ± 4 mPa·s	1264 ± 2 m/s	1245.09 ± 0.44 kg/m3	115 ± 3 mPa·s	1251 ± 2 m/s	1240.9 ± 0.43 kg/m3	88.5 ± 2.2 mPa·s	1238 ± 2 m/s	1236.71 ± 0.43 kg/m3	69.6 ± 1.6 mPa·s	1225 ± 2 m/s	1232.53 ± 0.42 kg/m3	55.7 ± 1.3 mPa·s	1213 ± 2 m/s	mass density ([1]; 328.15 K): 1228.37 ± 0.42 kg/m3; viscosity ([1]; 333.15 K): 45.2 ± 1 mPa·s; speed of sound ([1]; 333.15 K): 1201 ± 2 m/s; mass density ([1]; 333.15 K): 1224.22 ± 0.42 kg/m3; viscosity ([1]; 338.15 K): 37.1 ± 0.8 mPa·s; speed of sound ([1]; 338.15 K): 1188 ± 2 m/s; mass density ([1]; 338.15 K): 1220.07 ± 0.41 kg/m3; viscosity ([1]; 343.15 K): 30.9 ± 0.7 mPa·s; speed of sound ([1]; 343.15 K): 1176 ± 2 m/s; mass density ([1]; 343.15 K): 1215.94 ± 0.41 kg/m3; refractive index ([2]; 298.15 K): 1.46074 ± 0.00037; refractive index ([2]; 303.15 K): 1.4591 ± 0.00037; refractive index ([2]; 308.15 K): 1.45746 ± 0.00037; refractive index ([2]; 313.15 K): 1.45583 ± 0.00037; refractive index ([2]; 318.15 K): 1.45417 ± 0.00037; refractive index ([2]; 323.15 K): 1.45255 ± 0.00037; refractive index ([2]; 328.15 K): 1.45093 ± 0.00037; refractive index ([2]; 333.15 K): 1.4493 ± 0.00037; refractive index ([2]; 338.15 K): 1.44769 ± 0.00037; refractive index ([2]; 343.15 K): 1.44607 ± 0.00037
CCCCCC[n+]1cc(C)cc(C)c1C.O=S(=O)([N-]S(=O)(=O)C(F)(F)F)C(F)(F)F	174 ± 5 mPa·s	1288 ± 2 m/s	1336.18 ± 0.52 kg/m3	129 ± 4 mPa·s	1276 ± 2 m/s	1331.83 ± 0.51 kg/m3	98.2 ± 2.5 mPa·s	1264 ± 2 m/s	1327.48 ± 0.51 kg/m3	76.2 ± 1.8 mPa·s	1252 ± 2 m/s	1323.15 ± 0.51 kg/m3	60.2 ± 1.4 mPa·s	1240 ± 2 m/s	1318.83 ± 0.5 kg/m3	48.3 ± 1.1 mPa·s	1229 ± 2 m/s	1314.52 ± 0.5 kg/m3	39.3 ± 0.9 mPa·s	1218 ± 2 m/s	mass density ([1]; 328.15 K): 1310.23 ± 0.49 kg/m3; viscosity ([1]; 333.15 K): 32.4 ± 0.7 mPa·s; speed of sound ([1]; 333.15 K): 1206 ± 2 m/s; mass density ([1]; 333.15 K): 1305.85 ± 0.49 kg/m3; viscosity ([1]; 338.15 K): 27.1 ± 0.6 mPa·s; speed of sound ([1]; 338.15 K): 1195 ± 2 m/s; mass density ([1]; 338.15 K): 1301.66 ± 0.49 kg/m3; viscosity ([1]; 343.15 K): 23 ± 0.5 mPa·s; speed of sound ([1]; 343.15 K): 1184 ± 2 m/s; mass density ([1]; 343.15 K): 1297.4 ± 0.48 kg/m3; refractive index ([2]; 298.15 K): 1.46466 ± 0.00037; refractive index ([2]; 303.15 K): 1.46311 ± 0.00037; refractive index ([2]; 308.15 K): 1.4615 ± 0.00037; refractive index ([2]; 313.15 K): 1.4599 ± 0.00037; refractive index ([2]; 318.15 K): 1.45826 ± 0.00037; refractive index ([2]; 323.15 K): 1.45671 ± 0.00037; refractive index ([2]; 328.15 K): 1.45514 ± 0.00037; refractive index ([2]; 333.15 K): 1.45357 ± 0.00037; refractive index ([2]; 338.15 K): 1.452 ± 0.00037; refractive index ([2]; 343.15 K): 1.45044 ± 0.00037
